The text below walks through data of US20010022976A1, “Immunosuppressive and tumour-suppressive bone marrow factor” (London Health Sciences Centre, priority 1995, published 2001).

The test system of one experiment is Na—K—Cl cotransport. The experiment is described as follows: Na—K—Cl cotransport measured by 86Rb uptake in Jurkat cells. The class given is cell-based. To be noted: 1 μm isoproterenol, p<0.001. The protocol: Jurkat cells were centrifuged for 15 min at 300×g and resuspended in Dulbecco's modified Eagle's medium (DMEM; ionic composition: 1.8 mM CaCl2, 5.4 mM KCl, 0.8 mM MgSO4, 110 mM NaCl, 0.9 mM NaH2PO4, 0.25 µM Fe(NO3)3; GIBCO, Grand Island, N.Y.) with 10 mM N-2 hydroxyethylpiperazine-N′-2 ethanesulfonic acid (HEPES), pH 7.4 at a final concentration of 5-10×10^6 cells/ml. […] Assays were stopped by aliquoting 100 μl of the reaction mixture into chilled microcentrifuge tubes prefilled with 100 μl of 3 mM BaCl2 and 0.1 mM of ouabain solution layered over 100 μl of a 3:1 of mazola oil to n-butylphthalate mixture. Cells were rapidly sedimented through the oil interface (1 min at 15,000 g). Centrifuge tube tips containing the tip pellets were clipped in the vials and radioactivity was determined by scintillation spectroscopy (Beckman LS 6000).

For experiment [1], the system named is cAMP-dependent protein kinase (PKA). The experiment is described as follows: cAMP-dependent protein kinase (PKA) activity in digitonin-permeabilized Jurkat cells. Conditions: 5× rat C18 purified Reptimed or 1 μm isoproterenol, basal activity 9 +/−1. The class given is cell-based. The protocol:
Cyclic AMP-dependent protein kinase (PKA) activity was assayed in digitonin-permeabilized cells. Jurkat cells were centrifuged at 300×g for 15 min and resuspended in Hanks' balanced salt solution without calcium and with 0.5 mM EDTA, 1 mM magnesium sulfate, and 1 mg/100 ml digitonin. Jurkat cells were incubated for 15 min at 4° C. and then washed twice as above in Hanks' solution without digitonin and finally resuspended at a final concentration of 10 to 20×10^6 cells/ml for assay. Cells were either untreated, treated with 5×rat C18 purified […], or with 1 μm isoproterenol, or with both 5[…] and 1 μm isoproterenol. PKA activity was assessed by the phosphorylation of the synthetic PKA substrate (Kemptide-Sigma Chemical Corporation, St. Louis, Mo.). Phosphorylated substrate was separated by adherence to phosphocellulose. After six washes in phosphoric acid, radioactivity on the phosphocellulose strips was assessed by scintillation spectroscopy.

With `CC(C)NCC(O)c1ccc(O)c(O)c1` (centres unmarked) [isoproterenol], the “Na—K—Cl cotransport (86Rb uptake)” value in the experiment on Na—K—Cl cotransport is given as 38 +/−8 % of control. For the same compound, in experiment [1], the PKA activity result is listed as “significant increase”.
